From paper PMC9977057, “Indenyl-thiazole and indenyl-formazan derivatives: Synthesis, anticancer screening studies, molecular-docking, and pharmacokinetic/ molin-spiration properties” (PLOS ONE, 2023)

Legend:
[1] = test system: Gastric (SNU-16) Patch number (ATCC CRL-5822); assay: SRB cytotoxicity assay, gastric cancer cells SNU-16; assay type: cell-based
Experimental: (§1) A- Cell culture. The cells were obtained from the Egyptian Holding Company for Biological Products & Vaccines (VACSERA), Giza, Egypt, then maintained in the tissue culture unit. […] The cells were maintained as monolayer culture by serial sub‐culturing. Cell culture reagents were obtained from Lonza (Basel, Switzerland).
(§2) Sulforhodamine B(SRB) assay method was used to evaluate cytotoxicity. […] After 24 h, cells were incubated for 72 h with various concentrations of the tested compounds. Following 72 h treatments, the cells would be fixed with 10% trichloroacetic acid for 1 h at 4°C. Wells were stained for 10 minutes at room temperature with 0.4% SRBC (Sulphorhodamine B) dissolved in 1% acetic acid. After that, the plates were air-dried for 24 h. At the same time, the dye was dissolved in Tris‐HCl and left for 5 min on the shaker at 1600 rpm. Each well’s optical density (OD) was measured spectrophotometrically at 564 nm; by using an ELISA microplate reader (ChroMate‐4300, FL, USA). The IC50 values were calculated according to the equation for Boltzman sigmoidal concentration-response curve using the nonlinear regression fitting models (Graph Pad, Prism Version 9).

[2] = test system: COLO205 cells (colon cancer); assay: SRB cytotoxicity assay, colon cancer cells COLO205; assay type: cell-based
Experimental: as §1, §2

[3] = test system: normal cell; assay: Cytotoxicity on a normal cell (for selectivity index); assay type: cell-based; conditions: for IC50: column head names no cell, normal cell according to b79; for SI (selectivity index): ratio IC50 on normal cell / IC50 on cancer cell line
Experimental: Sulforhodamine B(SRB) assay method was used to evaluate cytotoxicity. Exponentially growing cells were collected using 0.25% Trypsin‐EDTA seeded in 96‐well plates at 1000‐2000 cells/well in RBMI‐1640 supplemented medium. After 24 h, cells were incubated for 72 h with various concentrations of the tested compounds. Following 72 h treatments, the cells would be fixed with 10% trichloroacetic acid for 1 h at 4°C. Wells were stained for 10 minutes at room temperature with 0.4% SRBC (Sulphorhodamine B) dissolved in 1% acetic acid. After that, the plates were air-dried for 24 h. At the same time, the dye was dissolved in Tris‐HCl and left for 5 min on the shaker at 1600 rpm. Each well’s optical density (OD) was measured spectrophotometrically at 564 nm; by using an ELISA microplate reader (ChroMate‐4300, FL, USA). The IC50 values were calculated according to the equation for Boltzman sigmoidal concentration-response curve using the nonlinear regression fitting models (Graph Pad, Prism Version 9).
The compounds show good selectivity toward cancerous cells, represented by the “selectivity index.” The selectivity index was previously used to measure selective cytotoxic activity. The selectivity index (SI) can be calculated from the ratio between IC50 of the compound on a normal cell and the compound on a cancer cell line. For example, the SI of compounds 6d, 10a, 10d, and 16 are 86.98, 76.82, 74.32, and 54.13, respectively.

[4] = Homo sapiens, SNU-16, 72 h incubation
[5] = Homo sapiens, COLO 205, 72 h incubation

**Q.** For `Cc1nc(N/N=C2\CCc3cc(Br)ccc32)sc1/N=N/c1ccccc1` [6a, 2-(2h4(5-Bromo-2,3-dihydro-1H-inden-1-ylidene)hydrazineyl)-4-methyl-5-(phenyldiazenyl)-thiazole], which IC50 [1, 4] is on record?
**A.** The IC50 was 21.79 ± 0.076 µM.

**Q.** And the IC50 [2, 5]?
**A.** The IC50 was 17.14 ± 0.12 µM.

**Q.** And the melting point?
**A.** Its melting point is 220 to 222 °C.

**Q.** What about the IC50 [3] of the same compound?
**A.** The IC50 was greater than 100 µM.

**Q.** With `Cc1cccc(N=Nc2sc(NN=C3CCc4cc(Br)ccc43)nc2C)c1` [6b, 2-(2-(5-Bromo-2,3-dihydro-1H-inden-1-ylidene)hydrazineyl)-4-methyl-5-(m-tolyldiazenyl)-thiazole] as the compound, how does the IC50 [1, 4] read?
**A.** Its IC50 is 12.28 ± 0.03 µM.

**Q.** What about the IC50 [2, 5] of the same compound?
**A.** The IC50 was 9.813 ± 0.005 µM.

**Q.** What about the melting point of the same compound?
**A.** The melting point was 128 to 129 °C.

**Q.** And the IC50 [3]?
**A.** The IC50 was greater than 100 µM.

**Q.** Which results are given for `Cc1ccc(N=Nc2sc(NN=C3CCc4cc(Br)ccc43)nc2C)cc1` [6c, 2-(2-(5-Bromo-2,3-dihydro-1H-inden-1-ylidene)hydrazineyl)-4-methyl-5-(p-tolyldiazenyl)thiazole]?
**A.** IC50 [1, 4]: 12.89 ± 0.076 µM; IC50 [2, 5]: 7.576 ± 0.07 µM; melting point: 130 to 132 °C; IC50 [3]: > 100 µM

**Q.** What does the source list for `Cc1nc(NN=C2CCc3cc(Br)ccc32)sc1N=Nc1cccc(Cl)c1` [6d, 2-(2-(5-Bromo-2,3-dihydro-1H-inden-1-ylidene)hydrazineyl)-5-((3-chlorophenyl)-diazenyl)-4-methylthiazole]?
**A.** IC50 [1, 4]: 19.79 ± 0.129 µM; IC50 [2, 5]: 6.958 ± 0.04 µM; IC50 [3]: 605 ± 35.2 µM; SI (selectivity index) [3]: 86.98

**Q.** For `Cc1nc(NN=C2CCc3cc(Br)ccc32)sc1N=Nc1ccc(Cl)cc1` [6e, 2-(2-(5-Bromo-2,3-dihydro-1H-inden-1-ylidene)hydrazineyl)-5-((4-chlorophenyl)diazenyl)-4-methylthiazole], which IC50 [1, 4] is on record?
**A.** The IC50 was 26.19 ± 0.12 µM.

**Q.** What about the IC50 [2, 5] of the same compound?
**A.** The IC50 was 7.276 ± 0.03 µM.

**Q.** And the melting point?
**A.** Its melting point is 177 to 178 °C.

**Q.** And the IC50 [3]?
**A.** Its IC50 is greater than 100 µM.

**Q.** For `Brc1ccc2c(c1)CCC2=NNc1nc(-c2ccccc2)cs1` [10a, N-(5-Bromo-indan-1-ylidene)-N’-(4-phenyl-thiazol-2-yl)-hydrazine], which IC50 [1, 4] is on record?
**A.** Its IC50 is 20 ± 0.64 µM.

**Q.** What about the IC50 [2, 5] of the same compound?
**A.** The IC50 was 6.301 ± 0.008 µM.

**Q.** And the IC50 [3]?
**A.** The IC50 was 485 ± 7.89 µM.

**Q.** What about the “SI (selectivity index)” value [3] of the same compound?
**A.** Its value is 76.82.

**Q.** For `Cc1ccc(-c2csc(NN=C3CCc4cc(Br)ccc43)n2)cc1` [10b, N-(5-Bromo-indan-1-ylidene)-N’-(4-p-tolyl-thiazol-2-yl)-hydrazine], which IC50 [1, 4] is on record?
**A.** The IC50 was 18.3 ± 0.39 µM.

**Q.** And the IC50 [2, 5]?
**A.** Its IC50 is 12.08 ± 0.006 µM.

**Q.** What about the melting point of the same compound?
**A.** The melting point was 233 to 234 °C.

**Q.** And the IC50 [3]?
**A.** The IC50 was greater than 100 µM.

**Q.** Which IC50 [1, 4] does the source give for `Brc1ccc(-c2csc(NN=C3CCc4cc(Br)ccc43)n2)cc1` [10c, N-(5-Bromo-indan-1-ylidene)-N’-[4-(4-bromo-phenyl)-thiazol-2-yl]-hydrazine] here?
**A.** The IC50 was 26.8 ± 0.6 µM.

**Q.** And the IC50 [2, 5]?
**A.** Its IC50 is 13.81 ± 0.025 µM.

**Q.** And the melting point?
**A.** Its melting point is 230 to 232 °C.

**Q.** What about the IC50 [3] of the same compound?
**A.** Its IC50 is greater than 100 µM.

**Q.** Which results are given for `Clc1ccc(-c2csc(NN=C3CCc4cc(Br)ccc43)n2)cc1` [10d, N-(5-Bromo-indan-1-ylidene)-N’-[4-(4-chloro-phenyl)-thiazol-2-yl]-hydrazine]?
**A.** IC50 [1, 4]: 7.576 ± 0.075 µM; IC50 [2, 5]: 12.16 ± 0.06 µM; IC50 [3]: 563 ± 44.2 µM; SI (selectivity index) [3]: 74.32

**Q.** With `CC(=O)C(=NNc1ccccc1)NN=C1CCc2cc(Br)ccc21` [14a, N’-(5-bromo-2,3-dihydro-1H-inden-1-ylidene)-2-oxo-N’’-phenylpropanehydrazonhydrazide] as the compound, how does the IC50 [1, 4] read?
**A.** The IC50 was 14.9 ± 0.3 µM.

**Q.** What about the IC50 [2, 5] of the same compound?
**A.** Its IC50 is 11.27 ± 0.046 µM.

**Q.** And the melting point?
**A.** The melting point was 190 °C.

**Q.** What about the IC50 [3] of the same compound?
**A.** The IC50 was greater than 100 µM.

**Q.** Which IC50 [1, 4] does the source give for `CC(=O)/C(=N\Nc1ccc(Cl)cc1)N/N=C1\CCc2cc(Br)ccc21` [14b, N’-(5-bromo-2,3-dihydro-1H-inden-1-ylidene)-N’’-(4-chlorophenyl)-2-oxopropanehydrazon-hydrazide] here?
**A.** The IC50 was 13.8 ± 0.69 µM.

**Q.** What about the IC50 [2, 5] of the same compound?
**A.** Its IC50 is 10.61 ± 0.09 µM.

**Q.** And the melting point?
**A.** Its melting point is 197 to 198 °C.

**Q.** What about the IC50 [3] of the same compound?
**A.** The IC50 was greater than 100 µM.

**Q.** What does the source list for `N.N.[Cl][Pt][Cl]` [Cisplatin, reference compound]?
**A.** IC50 ([1]; 72 h incubation): 11.27 ± 0.076 µM; IC50 ([2]; 72 h incubation): 9.13 ± 0.07 µM; IC50 [3]: 548 ± 61.2 µM

**Q.** Which IC50 [1, 4] does the source give for `NC(=S)NN=C1CCc2cc(Br)ccc21` [compound 3, 2-(5-Bromo-2,3-dihydro-1H-inden-1-ylidene)hydrazine-1-carbothioamide] here?
**A.** The IC50 was 19.01 ± 0.133 µM.

**Q.** What about the IC50 [2, 5] of the same compound?
**A.** The IC50 was 14.1 ± 0.04 µM.

**Q.** What about the melting point of the same compound?
**A.** Its melting point is 227 to 230 °C.

**Q.** What about the IC50 [3] of the same compound?
**A.** Its IC50 is greater than 100 µM.

**Q.** What does the source list for `NN=C1CCc2cc(Br)ccc21` [compound 4, (5-Bromo-indan-1-ylidene)-hydrazine]?
**A.** IC50 [1, 4]: 23.2 ± 0.204 µM; IC50 [2, 5]: 8.167 ± 0.07 µM; melting point: 120 °C; IC50 [3]: > 100 µM

**Q.** Which IC50 [1, 4] does the source give for `CCOC(=O)C(=NNc1ccccc1)NN=C1CCc2cc(Br)ccc21` [compound 15, Ethyl 2-(2-(5-bromo-2,3-dihydro-1H-inden-1-ylidene)hydrazineyl)-2-(2-phenyl-hydrazineylidene)acetate] here?
**A.** Its IC50 is 16.6 ± 0.38 µM.

**Q.** What about the IC50 [2, 5] of the same compound?
**A.** The IC50 was 13.63 ± 0.04 µM.

**Q.** What about the melting point of the same compound?
**A.** The melting point was 174 to 176 °C.

**Q.** And the IC50 [3]?
**A.** The IC50 was greater than 100 µM.

**Q.** Which results are given for `O=C(Nc1ccccc1)C(=NNc1ccccc1)NN=C1CCc2cc(Br)ccc21` [compound 16, 2-(2-(5-Bromo-2,3-dihydro-1H-inden-1-ylidene)hydrazineyl)-N-phenyl-2-(2-phenyl-hydrazineylidene)acetamide]?
**A.** IC50 [1, 4]: 9.699 ± 0.0726 µM; IC50 [2, 5]: 13.04 ± 0.025 µM; IC50 [3]: 525 ± 36.2 µM; SI (selectivity index) [3]: 54.13

**Q.** What does the source list for `CCN(CC)CCNC(=O)c1c(C)[nH]c(/C=C2\C(=O)Nc3ccc(F)cc32)c1C` [sunitinib, reference compound]?
**A.** IC50 [1, 4]: 8.45 ± 0.023 µM; IC50 [2, 5]: 11.27 ± 0.033 µM; IC50 [3]: 378 ± 31.8 µM
